Test results taken from a melting point compilation (Tetko et al.; mined from patent text by program, amines drawn as free bases though some values may be those of a salt).

Row | melting point [°C] | SMILES
1 | 120 | CC(C)C(F)(C(=O)O)c1ccc(Cl)cc1 (stereo not drawn)
2 | 100 to 103 | O=[N+]([O-])c1cc(OCC2CCCSC2)c(Cl)cc1F (stereo not drawn)
3 | 202 | NC(=O)N(C(=O)c1c(F)cccc1Cl)c1ccc(SC(F)(F)F)cc1
4 | 49 to 50 | CCOC(=O)c1cc(C)c(OCCCc2cc(C)no2)c(C)c1
5 | 144 to 146 | COCCOc1ccc(Sc2c(O)c3c(=O)n(-c4ccccc4)c4ccccc4c3oc2=O)cc1
6 | 203 to 205 | O=C(Oc1cc(F)ccc1Br)c1cc2cc(CCl)ccc2oc1=O
7 | 271 | Cc1ccc(N2C(=O)C(O)=C(C(=O)c3ccc(C(C)C)cc3)C2c2ccc(Cn3ncnn3)cc2)nn1 (stereo not drawn)
8 | 129 to 131 | Cc1c(OCC(F)(F)F)ccnc1CS(=O)c1nc2ccccc2n1NCC(C)C (stereo not drawn)
9 | 262 to 263 | CC1=NC(C)=C(c2ccc(Oc3ccc(S(C)=O)cc3)cc2)C(=O)C1Br (stereo not drawn)
10 | 118 to 120 | COc1cccc(Cc2ccc(-c3c[nH]nc3N)cc2)c1
11 | 98 to 99 | COc1ccc(C(=O)COc2ccc(C(=O)OCc3ccccc3)c(O)c2)cc1C(C)(C)C
12 | 159 | O=S(=O)(NCc1ccncc1)c1ccc(Br)s1
13 | 152 to 154 | CCOC(=O)C(=O)c1c[nH]c2c(CC)cccc12
14 | 94.5 to 95 | CN(C)C(=O)N(C)C(=O)Nc1ccc(Cl)cc1
15 | 102 | CC1(COCCCOc2ccc(C(=O)O)cc2)COC1
16 | 202 to 204 | C1=C(/C=C/c2cccs2)CCN(Cc2c[nH]c3ncccc23)C1
17 | 87 to 88 | COc1cc2c(cc1OC)C(=O)CCCO2
18 | 161 | Cc1cc(C)c2cccc(OCc3c(Cl)ccc(S(=O)(=O)N4CCC[C@H]4C(=O)N4CCN(C(=O)c5ccc(C(N)=NO)cc5)CC4)c3Cl)c2n1
19 | 177 | CC(=O)Nc1c(OCc2ccccc2)cc(Br)cc1N(C)C
20 | 65 to 70 | CCCC(=O)Oc1cc([N+](=O)[O-])cc([N+](=O)[O-])c1O
21 | 143 to 148 | COC1=C(Br)CO/C1=C\c1cccc2ccccc12
22 | 145 to 148 | CCCCc1oc2ccccc2c1C(=O)N(Cc1ccccc1)Cc1ccc(-c2ccc(OC)c(Br)c2)cc1
23 | 140 to 141 | CCOC(=O)c1cn(-c2cccnc2)nc1N
24 | 139 to 142 | N#CC(=Cc1ccc[nH]1)c1cccnc1
25 | 94 to 95 | O=Cc1cccc2ncc(C3CCCCC3)cc12

Row | melting point [°C] | SMILES
26 | 195 to 198 | Oc1ccccc1-c1ccnc(-c2ccccc2)n1
27 | 108 to 111 | CC1(C)OCCN1c1nc(-c2ccc(C#N)cc2)cs1
28 | 91 to 94 | O=C1CCC2(CC1)Cc1ccccc1C2
29 | 36 to 37 | CCCCC(=O)c1ncc(-c2ccccn2)o1
30 | 148 to 150 | CN(C)C(=O)Nc1ccc(OCC(=O)c2ccccc2)c(Cl)c1
31 | 299 | O=C(O)c1ccc(C(=O)Nc2cccc(Nc3nc(-c4cccnc4)cs3)c2)cc1
32 | 189 to 190 | COC(=O)c1cc2ccc(C(=O)OC(C)(C)C)cc2[nH]1
33 | 127 to 129 | O=C(NCCCn1ccnc1)c1ccoc1
34 | 114 to 115 | c1ccc(CC[C@H]2CNCCN2)cc1
35 | 98 to 101 | CSc1nccc(CC(=O)c2cccc(Br)c2)n1
36 | 104 to 105 | CCn1nc(N)nc1NCCCOc1cccc(CN(C)C)c1
37 | 277 | O=C(O)CCc1cnn2c(=O)[nH]cnc12
38 | 140 to 142 | CCOC(=O)c1cc2cc(O)ccc2n1C
39 | 153 to 154 | CCN1CN2C(=N1)C(c1ccccc1Cl)=NCc1ccsc12
40 | 55 to 56 | C=CC(=O)OCc1cn(-c2ccccc2)nn1
41 | 154 to 158 | CC1=CC2C(CC1)C(c1ccc(F)cc1)=NC(=O)N2C(C)C (stereo not drawn)
42 | > 300 | Cc1cc(NC23N=CN=C2C=NC(N2CCC(C)CC2)=N3)[nH]n1 (stereo not drawn)
43 | 207 to 209 | C1=C(/C=C/c2ccccc2)CCN(Cc2n[nH]c3ccccc23)C1
44 | 140 to 142 | Cc1nnc(-c2cc3cccc(OC[C@@H](O)CN4CCC(c5ccc6ccccc6c5)CC4)c3o2)o1
45 | 107 to 109 | O=Cc1ccc(-c2cnn(-c3ccc(OC(F)(F)F)cc3)c2)cc1
46 | 140 | CC#CCOc1ccc(SC(C(=O)NO)c2cccc3ccccc23)cc1 (stereo not drawn)
47 | 163 | Cc1ccc(CS(=O)(=O)c2nc3cscc3[nH]2)nc1
48 | 184 to 189 | Cc1cccc(C(=O)c2ncccc2C(=O)O)c1
49 | 94 to 96 | CC(C)(ON1C(C)(C)CC(OC(=O)CCCCCCCCC(=O)OC2CC(C)(C)N(OC(C)(C)c3ccccc3)C(C)(C)C2)CC1(C)C)c1ccccc1
50 | 136 to 137 | O=C(NCCN1CCN(c2cccc(Cl)c2)CC1)NC12CC3CC(CC(C3)C1)C2

Row | melting point [°C] | SMILES
51 | 189 to 191 | Cn1cc(CCN2C(=O)c3ccccc3C2=O)c2cc(CNC=O)ccc21
52 | 110 | N=c1sc2cc(OC(F)(F)F)ccc2n1CCS
53 | 77 to 78 | CC(=O)OCc1ccc([N+](=O)[O-])cc1
54 | 117 to 119 | CC(C)C(=O)NC(C)(C)C
55 | 158 to 160 | CCc1cnc(OCCOc2ncnc(NS(=O)(=O)c3ccc(C(C)(C)C)cc3)c2Oc2cccc(OC)c2)nc1
56 | 233 to 234 | COc1cc2nc(N)nc(-c3ccc(O)c(Br)c3)c2cc1OC
57 | 198 to 199 | O=C(Nc1c[nH]nc1C(=O)NCc1ccco1)c1ccccn1
58 | 103 to 106 | Cn1cc(C(=O)NCc2ccc(Cl)cc2)c(=O)c2cc(/C=C/CO)ccc21
59 | 255 to 261 | CC1NC(=O)NN=C1c1ccc(N(C)C)cc1 (stereo not drawn)
60 | 194 to 196 | O=C(O)COc1cccc2c1CCc1sc(SC(c3ccccc3F)c3ccccc3F)nc1-2
61 | 233 to 235 | CC(C)Oc1cccc(-c2ccc3cnc(Nc4ccc(C5CCN(CC(N)=O)CC5)cc4)nn23)c1
62 | 179 to 181 | CSCCCCCn1c(CCC(C)=O)nc2c(N)nc3ccccc3c21
63 | 191 to 193 | Cc1c(C(=O)Nc2ccc(OCCN3CCOCC3)c(C#N)c2)cnn1-c1ccc(C(F)(F)F)cc1
64 | 207 to 211 | Cc1nccn1-c1ccc(-c2cnc([C@H](Cc3ccccn3)N(C=O)c3cc4ccccc4[nH]3)n2C)cc1
65 | > 280 | NC(CCCCNC(=O)OCc1ccccc1)C(=O)NC1c2ccccc2-c2ccccc21 (stereo not drawn)
66 | 120 | C=CC(CC(O)C(CC(C)C)NC(=O)C(Cc1c[nH]cn1)NC(=O)C(Cc1ccccc1)Cc1ccccc1)C(C)C (stereo not drawn)
67 | 94 to 97 | CON1CCC2(CC1)C(=O)C(c1c(C)ccc(Cl)c1C)([N+](=O)[O-])C(=O)N2OC (stereo not drawn)
68 | > 290 | O=C(Nc1nc2cnccc2s1)Oc1ccccc1
69 | 140 to 143 | CCN(c1ccc(C)cc1)c1cc(NC)nc(C)n1
70 | 96 to 97 | CCCc1c(Cl)c2cc(Br)ccc2oc1=O
71 | 235 to 237 | COC(=O)C(NC(C)=O)NC(=O)c1cc(Cl)cc(Cl)c1 (stereo not drawn)
72 | 133 to 134 | O=S(=O)(NCCc1ccncc1)c1ccc(Br)s1
73 | 185 to 186 | CCOC(Cc1ccc(OCc2nc(C(C)(C)C)oc2C)c2ccccc12)C(=O)O (stereo not drawn)
74 | 170 | OC1CCCc2nc3ccccc3c(NCc3ccc(F)cc3)c21 (stereo not drawn)
75 | 33 to 35 | OC[C@@H]1CC=CC[C@@H]1CO

Row | melting point [°C] | SMILES
76 | 96 to 103 | CCCc1nc(C)cn1-c1nc(OC)ccc1[N+](=O)[O-]
77 | 186 to 187 | C1=CNC(C(c2ccccc2)c2ccccc2)=C(NCc2ccccc2)C=C1
78 | 197 to 198 | Cc1cc(N2NCCNC2=O)cc(Cl)c1Cc1ccc(Cl)cc1
79 | 194 to 195 | CCCOc1cc(O)nc(N(C)C)n1
80 | 128 to 130 | CC(C)c1ncc(C(=O)O)nc1C(C)C
81 | 205 to 206 | CCC1(N)CCN(c2c(F)c(N)c3c(=O)c(C(=O)O)cn(C4CC4)c3c2F)C1 (stereo not drawn)
82 | 202 to 203 | CC(C)n1c(=O)ccc2cnc(Nc3cccc([N+](=O)[O-])c3)nc21
83 | 181 to 182 | O=C(Nc1ccc2nc(CN3CCCCC3)ccc2c1)c1ccc(-c2ccc(F)cc2F)cc1
84 | 98 | CN(C)c1ccc(-c2cc(C(F)(F)F)c3c(-c4ccccc4)nn(COCC[Si](C)(C)C)c3n2)cc1
85 | 182 to 184 | Cc1ccc(F)c(-c2cc(Nc3ccnc4cn(CC(O)CO)nc34)ccn2)n1 (stereo not drawn)
86 | 118 to 121 | CC(=O)N(CC1CC1)c1cccc(-c2ccc3nnc(C)n3n2)c1
87 | 115 to 120 | CCC1CCN(C(=O)C(N)CCSCc2cn(C(c3ccccc3)(c3ccccc3)c3ccccc3)cn2)CC1 (stereo not drawn)
88 | 55 to 56 | Nc1nc(Cl)cc(OC(F)(F)F)n1
89 | 311 | Cc1cc(-c2ccc(Cl)cc2)cn2c(-c3nc(-c4ccc(S(N)(=O)=O)cc4)no3)cnc12
90 | 169 to 171 | O=C(Nc1ccccc1)Nc1ccnc(C(F)(F)F)c1
91 | 147 to 148 | CCOc1cc(OCCCc2cn(-c3ccc(C(F)(F)F)cn3)nc2O)ccc1CCC(=O)OC
92 | 49 | CCOC(=O)CNc1ccc2c(c1)CCC2
93 | 129 | COc1cc(-c2nc3ccc(OCCCl)cc3n2Cc2ccccc2)cc(OC)c1OC
94 | 239 to 241 | COc1ccc(Cl)cc1-c1c(S)c(=O)[nH]c2ccc(C(F)(F)F)cc12
95 | 207 | CC(=CC(N)[C@@H]1CN(c2ccc(-c3cccnc3)cn2)C(=O)O1)[N+](=O)[O-] (stereo partly drawn)
96 | 55 to 60 | O=C(NCc1ccccc1)c1ccnc(N2CCC(c3ccccc3)CC2=O)c1 (stereo not drawn)
97 | 75.4 to 76.1 | CCCCCCCCCCCCC(C(=O)O)C(O)(CC(=O)O)C(=O)O (stereo not drawn)

Row | SMILES | melting point [°C]
98 | CC1N=C(c2ccccn2)c2cc(Br)ccc2NC1=O (stereo not drawn) | 227 to 229
99 | O=C1CN2CCOC2(c2ccccc2Cl)c2cc([N+](=O)[O-])ccc2N1 (stereo not drawn) | 201 to 203
100 | O=C(CF)CS(=O)(=O)C(c1ccc(Cl)cc1)c1ccc(Cl)cc1 | 55 to 58
101 | N#CN=c1ncccn1Cc1ccc(Cl)nc1 | 218 to 220
102 | C[C@@H]1N(C)C(C)(C)CO[C@@]1(O)c1ccc(Cl)cc1 | 167 to 169
103 | CCCCN(CCCC)Cc1nc(-c2ncn3c2CN(C)C(=O)c2ccccc2-3)no1 | 105 to 110
